# In ChEMBL document CHEMBL1127227, “1H-1,2,4-triazole angiostensin II receptor antagonists: qC-linkedq analogs of SC-50560” (Bioorg Med Chem Lett, 1994):
# “And” between values parts separate entries of the source, which are not always exact repeats. Equal values may be shown once.
# What was measured:
# Angiotensin II receptor = molecular target: T1, Angiotensin II receptor (Rattus norvegicus, UniProt P29089+P25095+P35351); test: Inhibition of [125I]- AII binding to rat uterine membrane angiotensin II receptor
# T1 sequence (P29089 whole entry): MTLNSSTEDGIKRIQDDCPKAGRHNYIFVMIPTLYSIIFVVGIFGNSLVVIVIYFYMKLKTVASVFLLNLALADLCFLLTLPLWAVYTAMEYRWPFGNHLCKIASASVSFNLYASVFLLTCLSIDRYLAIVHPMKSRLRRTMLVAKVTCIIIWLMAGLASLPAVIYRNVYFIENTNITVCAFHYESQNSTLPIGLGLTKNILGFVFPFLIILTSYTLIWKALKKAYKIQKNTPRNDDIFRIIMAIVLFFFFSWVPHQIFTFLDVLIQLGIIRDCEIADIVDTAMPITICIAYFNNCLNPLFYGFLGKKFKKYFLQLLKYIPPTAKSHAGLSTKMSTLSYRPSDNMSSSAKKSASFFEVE
# T1 sequence (P25095 whole entry): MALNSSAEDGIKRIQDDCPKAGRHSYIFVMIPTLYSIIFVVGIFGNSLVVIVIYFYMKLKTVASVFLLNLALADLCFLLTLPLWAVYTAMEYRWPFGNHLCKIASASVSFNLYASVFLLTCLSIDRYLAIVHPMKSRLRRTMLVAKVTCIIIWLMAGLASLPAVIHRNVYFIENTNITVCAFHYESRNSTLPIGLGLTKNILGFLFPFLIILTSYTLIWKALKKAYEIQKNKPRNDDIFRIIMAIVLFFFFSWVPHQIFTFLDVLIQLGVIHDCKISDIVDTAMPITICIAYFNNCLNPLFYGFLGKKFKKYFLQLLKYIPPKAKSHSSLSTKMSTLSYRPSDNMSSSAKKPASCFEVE
# T1 sequence (P35351 whole entry): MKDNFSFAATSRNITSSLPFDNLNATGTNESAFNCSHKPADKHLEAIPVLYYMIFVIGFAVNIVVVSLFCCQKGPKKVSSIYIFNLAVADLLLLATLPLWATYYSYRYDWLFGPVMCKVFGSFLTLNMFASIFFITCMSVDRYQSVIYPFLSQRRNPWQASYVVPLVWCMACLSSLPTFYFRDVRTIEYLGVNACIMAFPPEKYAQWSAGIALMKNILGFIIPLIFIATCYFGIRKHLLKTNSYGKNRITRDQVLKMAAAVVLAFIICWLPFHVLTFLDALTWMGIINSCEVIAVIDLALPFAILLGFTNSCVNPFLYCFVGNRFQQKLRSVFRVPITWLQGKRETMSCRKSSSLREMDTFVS
# Oryctolagus cuniculus = species: Oryctolagus cuniculus; test: Antagonism of AII-contracted rabbit aortic rings; format: functional, organism-based, Aorta; conditions: for Kb: Oryctolagus cuniculus, Aorta, read-out: pA2 (converted)
SMILES,IC50 (Angiotensin II receptor),Kb (Oryctolagus cuniculus),pA2 (Oryctolagus cuniculus)
CCCCc1nc(C(F)(F)c2ccc(-c3ccccc3-c3nn[nH]n3)cc2)n(CCCC)n1,710 nM,–,–
CCCCc1nc(Cc2ccc(-c3ccccc3-c3nnn(C(c4ccccc4)(c4ccccc4)c4ccccc4)n3)cc2)n(CCCC)n1,140 nM,–,–
CCCCc1nc(Cc2ccc(-c3ccccc3C(=O)O)cc2)n(CCCC)n1,240 nM,79.4 nM,–
CCCCn1nc(CCc2ccccc2)nc1Cc1ccc(-c2ccccc2-c2nn[nH]n2)cc1,9.5 nM,12.6 nM,–
CCCCc1nc(C(C)c2ccc(-c3ccccc3-c3nn[nH]n3)cc2)n(CCCC)n1 (stereo not drawn),29000 nM,–,–
CCCCc1nc(C(=O)c2ccc(-c3ccccc3-c3nn[nH]n3)cc2)n(CCCC)n1,32000 nM,–,–
CCCCc1nc(C(O)c2ccc(-c3ccccc3-c3nn[nH]n3)cc2)n(CCCC)n1 (stereo not drawn),1800 nM,251 nM,–
CCCCc1nc(CCCC)n(Cc2ccc(-c3ccccc3-c3nn[nH]n3)cc2)n1,–,2 nM,–

# Second part, led by results:
IC50 (Angiotensin II receptor),SMILES,Kb (Oryctolagus cuniculus),pA2 (Oryctolagus cuniculus)
12000 nM and 6700 nM,CCCCc1nc(Cc2ccc(-c3ccccc3-c3nn[nH]n3)cc2)nn1CCCC,10000 nM,5.3
16 nM,CCCCc1nc(Cc2ccc(-c3ccccc3-c3nn[nH]n3)cc2)n(CCCC)n1,3.16 nM,–
40 nM,CCCCn1nc(C(F)(F)CCC)nc1Cc1ccc(-c2ccccc2-c2nn[nH]n2)cc1,10 nM,–
